# How the values were obtained:
# blood basophils = test: Blood basophil numbers and HLA-DR expression in SLE patients under immunosuppressive treatments; type: in vivo, human; settings: low dose (≤7.5 mg/day) vs medium to high dose (>7.5 mg/day) prednisone
# Protocol: Blood was harvested in EDTA-coated tubes. 4 ml of blood was used to harvest plasma sample. For this purpose, blood was centrifugated at 600×g for 20 minutes at 4° C. Plasma phase was then harvested, and samples kept at […] until further analysis. For basophils analysis, 10 ml of whole blood were added to 20 ml of ACK lysing buffer and incubated 5 min at room temperature and 5 more minutes on ice. 30 ml of PBS was added, and cells were centrifuged (500×g, 5 min). This step was repeated three times total until no more red blood cells were visible. Cells were then resuspended into 10 ml (original volume) of FACS buffer (PBS/1% BSA/0.05% NaN3). Number of leukocytes per ml and viability were assessed with a ViCell cell counter (Beckman and Coulter). Viability was always over 90%. Cells were then processed for extracellular staining with the indicated surface markers. For basophil absolute counts, basophils were identified as FcϵRIα^+CD203c^+CD123^+CD11b^+ cells. For HLA-DR expression analysis, basophils were identified as FcϵRI^+CD203c^+CD11b^+. For CD62L expression analysis, basophils were identified as FcϵRIα^+CD203c^+CD123^+.
# FcϵRI = settings: Lin, H. et al. (2004); cited from earlier work
Compound,HLA-DR expressing basophils (blood basophils),number of peripheral basophils (blood basophils),FcϵRI expression on basophils (FcϵRI)
C[C@]12C=CC(=O)C=C1CC[C@@H]1[C@@H]2C(=O)C[C@@]2(C)[C@H]1CC[C@]2(O)C(=O)CO [prednisone],no difference,no difference,–
omalizumab: recombinant DNA-derived humanized IgG monoclonal antibody that selectively binds to human immunoglobulin E (IgE),–,–,decreases FcϵRI expression on basophils

# Reference: US10017762B2, “Compositions and methods for treating or preventing lupus” (The United States of America, as represented by the …, priority 2010, dated 2018)
